Assay results: patent publication US7074789B2, “Kinase inhibitors” (Amgen Inc., priority 1999, dated 2006)
Read-outs that look alike come from different tables or passages of the source.

Tests used:
Format in all cases: biochemical
[1] = biological target: T1, Itk (Homo sapiens, UniProt Q08881); assay: Kinase inhibition assay (33P transfer), Itk; settings: read-out: Itk-1
T1 construct: Kinases are expressed as either kinase domains or full length constructs; made in house
T1 sequence (Q08881 1-620): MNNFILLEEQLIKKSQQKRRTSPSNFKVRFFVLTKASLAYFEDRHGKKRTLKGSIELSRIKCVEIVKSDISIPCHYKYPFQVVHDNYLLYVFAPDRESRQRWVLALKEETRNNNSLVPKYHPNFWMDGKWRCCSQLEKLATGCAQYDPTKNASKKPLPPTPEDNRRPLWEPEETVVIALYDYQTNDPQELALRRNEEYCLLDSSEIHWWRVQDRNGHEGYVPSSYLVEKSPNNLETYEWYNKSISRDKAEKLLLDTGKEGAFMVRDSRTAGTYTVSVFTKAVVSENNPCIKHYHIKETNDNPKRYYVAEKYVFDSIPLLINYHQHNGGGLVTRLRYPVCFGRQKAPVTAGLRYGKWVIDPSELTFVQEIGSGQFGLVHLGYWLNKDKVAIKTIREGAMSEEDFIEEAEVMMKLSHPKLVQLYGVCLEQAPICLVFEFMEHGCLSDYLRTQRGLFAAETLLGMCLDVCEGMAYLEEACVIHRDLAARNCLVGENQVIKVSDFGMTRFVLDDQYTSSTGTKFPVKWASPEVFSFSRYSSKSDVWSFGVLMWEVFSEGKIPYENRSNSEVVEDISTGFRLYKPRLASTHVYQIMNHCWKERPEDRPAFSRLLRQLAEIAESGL
Procedure, shortened: (§1)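 Using immobilised substrate copolymers (poly(Glu,Tyr) 4:1; poly(Arg,Ser) 3:1) and [33P]ATP, purified fusion kinases were allowed to react; plates were then rinsed in 0.5% phosphoric acid and counted in a scintillation detector. Half-maximal inhibition of label transfer defines IC50.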

[2] = biological target: T2, EGFR (Homo sapiens, UniProt P00533); assay: Kinase inhibition assay (33P transfer), EGFR; settings: Table 2, kinase inhibition class; read-out: EGFR-1
T2 construct: Kinases are expressed as either kinase domains or full length constructs; made in house
T2 sequence (P00533 25-1210, species assumed): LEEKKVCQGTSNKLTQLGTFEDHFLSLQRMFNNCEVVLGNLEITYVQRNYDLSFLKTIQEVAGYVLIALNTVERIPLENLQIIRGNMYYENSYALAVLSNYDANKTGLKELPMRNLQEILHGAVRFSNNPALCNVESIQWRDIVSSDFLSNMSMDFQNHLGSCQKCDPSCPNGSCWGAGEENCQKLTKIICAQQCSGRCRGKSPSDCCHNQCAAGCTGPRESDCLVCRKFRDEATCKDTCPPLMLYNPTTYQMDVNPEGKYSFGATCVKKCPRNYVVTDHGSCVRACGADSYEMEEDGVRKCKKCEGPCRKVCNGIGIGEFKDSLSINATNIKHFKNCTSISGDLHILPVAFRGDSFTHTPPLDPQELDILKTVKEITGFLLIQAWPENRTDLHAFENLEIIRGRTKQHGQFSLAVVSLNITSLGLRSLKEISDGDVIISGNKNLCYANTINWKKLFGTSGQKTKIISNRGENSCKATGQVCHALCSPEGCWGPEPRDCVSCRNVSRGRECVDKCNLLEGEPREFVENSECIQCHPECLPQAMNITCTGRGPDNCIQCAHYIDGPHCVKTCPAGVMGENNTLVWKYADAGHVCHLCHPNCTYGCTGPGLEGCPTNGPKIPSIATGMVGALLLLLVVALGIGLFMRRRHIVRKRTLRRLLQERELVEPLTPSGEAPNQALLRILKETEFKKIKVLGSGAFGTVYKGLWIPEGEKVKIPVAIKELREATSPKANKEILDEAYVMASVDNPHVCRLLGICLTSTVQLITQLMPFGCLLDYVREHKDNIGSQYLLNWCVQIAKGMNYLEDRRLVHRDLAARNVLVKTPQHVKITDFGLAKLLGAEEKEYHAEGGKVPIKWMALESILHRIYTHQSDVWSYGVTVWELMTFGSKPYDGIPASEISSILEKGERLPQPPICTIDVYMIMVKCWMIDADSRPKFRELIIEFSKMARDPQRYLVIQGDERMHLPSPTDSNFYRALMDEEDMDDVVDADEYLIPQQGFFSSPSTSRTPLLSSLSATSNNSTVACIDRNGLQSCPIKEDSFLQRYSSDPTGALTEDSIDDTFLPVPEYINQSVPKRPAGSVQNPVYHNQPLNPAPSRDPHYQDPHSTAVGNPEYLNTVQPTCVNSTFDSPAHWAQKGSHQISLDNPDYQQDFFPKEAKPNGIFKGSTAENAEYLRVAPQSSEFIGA
Procedure, shortened: as §1

[3] = biological target: T3, AKT (Homo sapiens, UniProt Q9Y243); assay: Kinase inhibition assay (33P transfer), AKT; settings: Table 2, kinase inhibition class; read-out: AKT3-1
T3 construct: Kinases are expressed as either kinase domains or full length constructs; made in house
T3 sequence (Q9Y243 whole entry, the tested form may be a part): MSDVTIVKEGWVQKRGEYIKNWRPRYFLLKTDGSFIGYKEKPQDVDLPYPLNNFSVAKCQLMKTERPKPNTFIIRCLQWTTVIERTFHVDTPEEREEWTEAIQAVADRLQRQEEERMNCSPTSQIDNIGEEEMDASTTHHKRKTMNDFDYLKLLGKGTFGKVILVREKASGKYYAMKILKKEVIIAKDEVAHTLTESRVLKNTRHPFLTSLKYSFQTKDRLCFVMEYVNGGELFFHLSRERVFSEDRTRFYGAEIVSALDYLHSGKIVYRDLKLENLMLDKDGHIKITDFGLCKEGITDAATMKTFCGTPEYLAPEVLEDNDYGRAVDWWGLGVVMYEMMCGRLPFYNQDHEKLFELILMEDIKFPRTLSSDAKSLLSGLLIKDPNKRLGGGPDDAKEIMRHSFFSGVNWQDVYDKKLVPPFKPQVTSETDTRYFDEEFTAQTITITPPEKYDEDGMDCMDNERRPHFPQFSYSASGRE
Procedure, shortened: (§2)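 Kinase domain or full-length constructs, GST- or polyHis-tagged, expressed in E. coli or baculovirus-High Five cells, sometimes with regulatory polypeptides. Activity measured as 33PO4 transfer from ATP to plate-bound poly(Glu,Tyr) 4:1 or poly(Arg,Ser) 3:1; after incubation, plates washed with 0.5% phosphoric acid and counted by liquid scintillation.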

[4] = biological target: T4, Tek (Homo sapiens, UniProt Q02763); assay: Kinase inhibition assay (33P transfer), Tek; settings: read-out: Tek-1
T4 construct: Kinases are expressed as either kinase domains or full length constructs; made in house
T4 sequence (Q02763 23-1124, species assumed): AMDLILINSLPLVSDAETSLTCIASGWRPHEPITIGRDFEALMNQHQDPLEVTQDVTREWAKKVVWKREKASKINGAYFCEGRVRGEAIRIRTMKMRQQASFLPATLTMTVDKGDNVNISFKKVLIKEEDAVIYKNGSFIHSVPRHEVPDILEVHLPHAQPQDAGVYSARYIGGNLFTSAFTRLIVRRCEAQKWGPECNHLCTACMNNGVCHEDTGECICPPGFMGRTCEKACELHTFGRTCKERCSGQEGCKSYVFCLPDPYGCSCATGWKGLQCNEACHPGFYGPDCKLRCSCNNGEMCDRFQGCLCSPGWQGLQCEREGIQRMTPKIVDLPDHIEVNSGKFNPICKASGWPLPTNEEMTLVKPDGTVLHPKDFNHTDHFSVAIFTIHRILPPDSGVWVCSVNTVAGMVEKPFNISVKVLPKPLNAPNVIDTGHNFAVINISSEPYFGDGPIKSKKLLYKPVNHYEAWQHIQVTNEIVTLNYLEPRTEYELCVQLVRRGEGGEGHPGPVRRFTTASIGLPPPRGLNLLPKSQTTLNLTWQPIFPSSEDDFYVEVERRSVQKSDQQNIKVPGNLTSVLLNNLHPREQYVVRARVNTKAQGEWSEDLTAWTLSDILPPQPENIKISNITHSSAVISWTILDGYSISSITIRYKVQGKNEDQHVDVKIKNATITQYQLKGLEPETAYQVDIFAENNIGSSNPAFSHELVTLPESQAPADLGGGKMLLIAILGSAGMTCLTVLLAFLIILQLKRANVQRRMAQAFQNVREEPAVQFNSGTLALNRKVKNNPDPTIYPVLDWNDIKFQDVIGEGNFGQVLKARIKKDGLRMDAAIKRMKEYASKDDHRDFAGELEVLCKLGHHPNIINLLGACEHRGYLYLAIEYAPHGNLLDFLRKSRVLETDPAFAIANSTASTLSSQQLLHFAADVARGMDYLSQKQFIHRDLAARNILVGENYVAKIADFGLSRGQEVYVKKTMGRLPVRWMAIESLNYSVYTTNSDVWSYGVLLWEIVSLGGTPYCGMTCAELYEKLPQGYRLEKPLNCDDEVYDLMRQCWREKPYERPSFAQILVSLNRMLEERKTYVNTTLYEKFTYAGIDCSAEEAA
From the text: The inhibitor compounds described herein are screened in the following manner. Kinases suitable for use in the following protocol to determine kinase activity of the compounds described herein include, -but are not limited to: Lck, Lyn, Src, Fyn, Syk, Zap-70, Itk, Tec, Btk, EGFR, ErbB2, Kdr, Flt-1, Flt-3, Tek, c-Met, InsR, and AKT.
Kinases are expressed as either kinase domains or full length constructs fused to glutathione S-transferase (GST) or polyHistidine tagged fusion proteins in either E. colior Baculovirus-High Five expression systems. They are purified to near homogeneity by affinity chromatography essentially as previously described (Lehr et al., 1996; Gish et al., 1995). In some instances, kinases are co-expressed or mixed with purified or partially purified regulatory polypeptides prior to measurement of activity.
Kinase activity and inhibition are measured essentially by established protocols (Braunwalder et al., 1996). Briefly, The transfer of ^33PO4 from ATP to the synthetic substrates poly(Glu, Tyr) 4:1 or poly(Arg, Ser) 3:1 attached to the bioactive surface of microtiter plates serves as the basis to evaluate enzyme activity. After an incubation period, the amount of phosphate transferred is measured by first washing the plate with 0.5% phosphoric acid, adding liquid scintillant, and then counting in a liquid scintillation detector. The IC50 is determined by the concentration of compound that causes a 50% reduction in the amount of […] incorporated onto the substrate bound to the plate.

[5] = biological target: T5, c-Met (Homo sapiens, UniProt P08581); assay: Kinase inhibition assay (33P transfer), c-Met; settings: Table 2, kinase inhibition class; read-out: Met-1
T5 construct: Kinases are expressed as either kinase domains or full length constructs; made in house
T5 sequence (P08581 25-1390): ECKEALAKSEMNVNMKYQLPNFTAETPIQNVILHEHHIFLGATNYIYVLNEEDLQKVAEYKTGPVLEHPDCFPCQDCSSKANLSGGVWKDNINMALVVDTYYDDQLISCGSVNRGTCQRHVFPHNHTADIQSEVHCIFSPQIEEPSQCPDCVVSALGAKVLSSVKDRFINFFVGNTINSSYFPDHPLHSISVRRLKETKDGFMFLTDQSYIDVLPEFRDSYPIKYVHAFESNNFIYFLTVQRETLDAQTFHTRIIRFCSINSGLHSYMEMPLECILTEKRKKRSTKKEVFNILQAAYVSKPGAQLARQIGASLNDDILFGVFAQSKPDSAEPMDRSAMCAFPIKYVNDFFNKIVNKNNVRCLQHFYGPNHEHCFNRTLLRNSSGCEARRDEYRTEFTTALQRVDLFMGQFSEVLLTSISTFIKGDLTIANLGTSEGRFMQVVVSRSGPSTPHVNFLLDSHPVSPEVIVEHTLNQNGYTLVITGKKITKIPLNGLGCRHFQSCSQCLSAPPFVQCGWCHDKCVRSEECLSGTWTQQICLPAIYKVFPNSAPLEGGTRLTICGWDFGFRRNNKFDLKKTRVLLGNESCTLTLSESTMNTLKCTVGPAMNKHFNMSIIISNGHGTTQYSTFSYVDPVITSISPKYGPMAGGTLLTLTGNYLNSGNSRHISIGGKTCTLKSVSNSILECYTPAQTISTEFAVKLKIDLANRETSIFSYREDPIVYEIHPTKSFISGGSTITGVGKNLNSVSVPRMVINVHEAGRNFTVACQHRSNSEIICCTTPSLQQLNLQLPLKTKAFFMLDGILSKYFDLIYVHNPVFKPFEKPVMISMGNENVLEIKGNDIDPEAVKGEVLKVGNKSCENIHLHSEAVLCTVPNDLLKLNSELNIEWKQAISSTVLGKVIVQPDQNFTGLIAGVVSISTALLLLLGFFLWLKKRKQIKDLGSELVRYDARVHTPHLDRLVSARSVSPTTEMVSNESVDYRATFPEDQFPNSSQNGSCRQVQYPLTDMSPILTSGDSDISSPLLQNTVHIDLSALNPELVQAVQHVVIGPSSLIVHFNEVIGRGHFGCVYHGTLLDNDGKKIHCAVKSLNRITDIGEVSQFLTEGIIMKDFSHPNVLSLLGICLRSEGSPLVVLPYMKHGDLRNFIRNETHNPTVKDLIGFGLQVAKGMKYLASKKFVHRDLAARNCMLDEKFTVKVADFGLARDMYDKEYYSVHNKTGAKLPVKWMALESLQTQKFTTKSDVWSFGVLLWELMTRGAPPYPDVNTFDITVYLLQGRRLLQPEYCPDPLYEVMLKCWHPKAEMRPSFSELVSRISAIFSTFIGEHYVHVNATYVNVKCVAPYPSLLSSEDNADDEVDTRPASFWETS
Procedure, shortened: as §1

[6] = biological target: T6, Zap-70 (Homo sapiens, UniProt P43403); assay: Kinase inhibition assay (33P transfer), Zap-70; settings: read-out: Zap-1
T6 construct: Kinases are expressed as either kinase domains or full length constructs; made in house
T6 sequence (P43403 1-619): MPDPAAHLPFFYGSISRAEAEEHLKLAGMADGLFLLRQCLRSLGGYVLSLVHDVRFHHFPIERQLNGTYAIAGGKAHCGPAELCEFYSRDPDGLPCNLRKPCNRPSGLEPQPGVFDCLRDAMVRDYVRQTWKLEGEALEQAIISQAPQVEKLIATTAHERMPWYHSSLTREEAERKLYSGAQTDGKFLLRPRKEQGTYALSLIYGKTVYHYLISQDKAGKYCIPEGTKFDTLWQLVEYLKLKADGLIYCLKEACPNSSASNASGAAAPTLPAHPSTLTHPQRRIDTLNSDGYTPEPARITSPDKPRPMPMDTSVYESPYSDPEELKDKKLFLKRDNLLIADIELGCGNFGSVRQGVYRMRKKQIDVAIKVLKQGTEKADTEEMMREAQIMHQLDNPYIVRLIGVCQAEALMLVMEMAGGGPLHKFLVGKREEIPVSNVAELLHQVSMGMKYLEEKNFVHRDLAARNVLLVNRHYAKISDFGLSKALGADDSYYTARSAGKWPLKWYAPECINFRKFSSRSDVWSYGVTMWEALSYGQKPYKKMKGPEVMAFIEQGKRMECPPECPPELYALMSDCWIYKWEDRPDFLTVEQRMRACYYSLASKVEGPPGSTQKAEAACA
Procedure, shortened: as §2

[7] = biological target: T7, Kdr (Homo sapiens, UniProt P35968); assay: Kinase inhibition assay (33P transfer), Kdr; settings: read-out: KDR-1
T7 construct: Kinases are expressed as either kinase domains or full length constructs; made in house
Procedure, shortened: as §2

[8] = biological target: T8, Lck (Homo sapiens, UniProt P06239); assay: Kinase inhibition assay (33P transfer), Lck; settings: read-out: Lck-1
T8 construct: Kinases are expressed as either kinase domains or full length constructs; made in house
T8 sequence (P06239 whole entry, species assumed, the tested form may be a part): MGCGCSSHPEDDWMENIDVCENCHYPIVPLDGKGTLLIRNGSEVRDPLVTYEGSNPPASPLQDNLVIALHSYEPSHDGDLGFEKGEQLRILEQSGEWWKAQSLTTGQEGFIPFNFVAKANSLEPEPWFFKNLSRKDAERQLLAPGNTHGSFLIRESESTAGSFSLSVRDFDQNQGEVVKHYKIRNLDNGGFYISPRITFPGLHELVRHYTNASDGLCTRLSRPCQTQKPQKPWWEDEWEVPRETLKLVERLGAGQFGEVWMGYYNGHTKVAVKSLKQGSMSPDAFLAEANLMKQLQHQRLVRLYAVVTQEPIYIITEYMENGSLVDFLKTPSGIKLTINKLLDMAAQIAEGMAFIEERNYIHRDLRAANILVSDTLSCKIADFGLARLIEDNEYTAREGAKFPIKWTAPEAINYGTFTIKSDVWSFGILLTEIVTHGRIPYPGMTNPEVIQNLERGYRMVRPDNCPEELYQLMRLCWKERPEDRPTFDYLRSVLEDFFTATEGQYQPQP
Procedure, shortened: as §2

| IC50 [1] | IC50 [2] | IC50 [3] | IC50 [4] | IC50 [5] | IC50 [6] | IC50 [7] | IC50 [8] | IC50 ([1]; Table 3) | IC50 ([6]; Table 3) | IC50 ([7]; Table 3) | IC50 ([8]; Table 3) | SMILES |
| --- | --- | --- | --- | --- | --- | --- | --- | --- | --- | --- | --- | --- |
| > 12.2 µM | 1.09 to 6.53 µM | > 12.2 µM | > 12.2 µM | 1.09 to 6.53 µM | > 12.2 µM | 6.53 to 9.53 µM | > 12.2 µM |  |  |  |  | CC(C)(C)c1cc(Nc2ncnc(Nc3cccc(CC(=O)O)c3)n2)[nH]n1 [Compound 979] |
| > 12 µM | > 12 µM | > 12 µM | > 12 µM | > 12 µM | > 12 µM | 9.36 to 12 µM | > 12 µM |  |  |  |  | COc1cc(Nc2ncnc(-c3cccnc3Cl)n2)cc(OC)c1OC [Compound 1075] |
| > 9.27 µM | > 9.27 µM | > 9.27 µM | > 9.27 µM | > 9.27 µM | > 9.27 µM | < 0.824 µM | > 9.27 µM |  |  |  |  | COc1cc(Nc2ncnc(-n3c(OCc4ccccn4)nc4ccccc43)n2)cc(OC)c1OC [Compound 690] |
|  | > 16.7 µM |  | > 16.7 µM | > 16.7 µM |  |  |  | > 16.7 µM | > 16.7 µM | > 16.7 µM | > 16.7 µM | Nc1ncnc(Nc2ccc(C3CCCCC3)cc2)n1 [Compound 1021] |
|  | > 16.2 µM |  | > 16.2 µM | > 16.2 µM |  |  |  | > 16.2 µM | > 16.2 µM | > 16.2 µM | > 16.2 µM | COc1cc(Nc2ncnc(N)n2)cc(OC)c1OC [Compound 1024, N-(3,4,5-trimethoxy-phenyl)-[1,3,5]triazine-2,4-diamine] |

Further lines, the molecule ahead of its results:

| SMILES | IC50 [1] | IC50 [2] | IC50 [3] | IC50 [4] | IC50 [5] | IC50 [6] | IC50 [7] | IC50 [8] | IC50 ([1]; Table 3) | IC50 ([6]; Table 3) | IC50 ([7]; Table 3) | IC50 ([8]; Table 3) |
| --- | --- | --- | --- | --- | --- | --- | --- | --- | --- | --- | --- | --- |
| COc1cc(Nc2ncnc(N[C@@H](CO)c3ccccc3)n2)cc(OC)c1OC [Compound 427] |  | > 11.3 µM | > 11.3 µM | > 11.3 µM | > 11.3 µM |  |  |  | > 11.3 µM | > 11.3 µM | > 11.3 µM | > 11.3 µM |
| COc1cc(Nc2nc3ccccc3n2-c2ncnc(Nc3cc(OC)c(OC)c(OC)c3)n2)cc(OC)c1 [Compound 399] |  | > 8.5 µM | 6.61 to 8.5 µM | > 8.5 µM | > 8.5 µM |  |  |  | > 8.5 µM | > 8.5 µM | 0.755 to 4.53 µM | 6.61 to 8.5 µM |
| COc1cc(Nc2ncnc(-n3c(NC(=O)c4ccccc4)nc4ccccc43)n2)cc(OC)c1OC [Compound 435] |  | > 9.04 µM | > 9.04 µM |  | > 9.04 µM |  |  |  | > 9.04 µM | > 9.04 µM | > 9.04 µM | > 9.04 µM |
| COc1cc(Nc2ncnc(-c3ccc(N4CCNCC4)nc3)n2)cc(OC)c1OC [Compound 436] |  | 8.26 to 10.6 µM | > 10.6 µM |  | > 10.6 µM |  |  |  | > 10.6 µM | > 10.6 µM | 8.26 to 10.6 µM | > 10.6 µM |
| COc1cc(Nc2ncnc(-n3c(=O)oc4ccccc43)n2)cc(OC)c1OC [Compound 423] |  | 1.01 to 6.07 µM | 6.07 to 8.85 µM |  | > 11.4 µM |  |  |  | > 11.4 µM | > 11.4 µM | 1.01 to 6.07 µM | 1.01 to 6.07 µM |
